We go through two compounds from publication PMC5874726, “Comparison Study of Two Differently Clicked ^18F-Folates—Lipophilicity Plays a Key Role” (Pharmaceuticals, 2018).

One data set has as its system KB tumor-bearing mice. The data set can be described thus: µPET imaging in KB tumor-bearing mice. In kind it is in vivo, mouse. To be noted: static scan 50-60 min p.i. An excerpt:
(§1) All animal experiments were approved by the local ethical committee (permission no. 23177-07/G15-1-033). Balb/c and balb/c nude (Balb/c AnNRj-Foxn1nu) mice were kept on a folate-deficient rodent diet to reduce their blood level of folate to one found in humans. After 7 days of acclimatization, human KB tumor cells (2.5 x 10^6 cells in PBS) were inoculated in the right shoulder of each balb/c nude mouse. All in vivo treatments and imaging experiments were done under isoflurane anesthesia. Eleven or twelve days after inoculation, animals were intravenously injected with ^18F-DBCO-Folate and ^18F-Ala-Folate (5–8 MBq, 100–200 µL) via a lateral tail vein. […] PET/MRI-studies were performed on a nanoScan PET/MRI (Mediso, Budapest, Hungary). First MRI scans (Material Map for co-registration of the PET scan; 3D; GRE-EXT, FOV; slice thickness: 0.6 mm; TE: 2 ms; TR: 15 ms; flip angle: 25 deg) were acquired and then either a dynamic scan over 60 min starting with injection of the radiotracer or a static scan for 10 min after 50 min p.i. were performed. All mice, which underwent ex vivo biodistribution, were scanned first. Afterwards co-registered PET/MR images were analyzed via PMOD (version 3.6) and Inveon Research Workplace (version 4.2). For ex vivo biodistribution studies mice were euthanized 60 min p.i. and organs of interest were dissected, weighed, and measured in a γ-counter (PerkinElmer 2470 Wizard2, Perkin Elmer, Rodgau, Germany). The incorporated radioactivity was expressed as percentage of injected dose per gram of tissue (% ID/g).

In another data set the test system is KB-tumor bearing mice. The experiment in a line: Ex vivo biodistribution in KB-tumor bearing mice.
Source text: as §1

For the next data set, the system named is FR-negative OC316 cells. The data set can be described thus: Internalization studies in FR-negative OC316 cells. In kind it is cell-based, human. To be noted: blocked KB cells and FR-negative OC316 cells. The protocol: Two different temperatures (4 °C for receptor binding, 37 °C for receptor binding and internalization) and two different concentrations were assessed. […] Both radiofolates show a concentration as well as temperature depended increase of activity in the FR positive cells. […] This effect is not fully understood, but we presume the high lipophilicity in combination with the increased concentration being responsible for this high non-specific binding. […] Thus, about 90% of ^18F-DBCO-folate remained in solution, which is ideal for such a radiotracer assay set-up (see supporting information for pie chart of activity distribution, Figure S6). For ^18F-Ala-folate the overall receptor-bound and internalized fractions are similar to ^18F-DBCO-folate (see supporting information for pie chart of activity distribution, Figure S7).
As folate-receptor positive control, KB cells (derived from human cervical carcinoma; obtained from German Collection of Microorganisms and Cell Cultures), and OC316 cells (derived from human ovarian adenocarcinoma) as negative control were used. For FACS analysis, data of both cell lines see supporting information Figure S5. The cells were cultured in folate deficient RPMI 1640 medium containing 10% FCS, 1% penicillin-streptomycin and HEPES buffer (10 mM, 5 mL) grown at 37 °C in a humidified atmosphere containing 5% CO2. […]

Another data set relates to healthy balb/c mice. The data set can be described thus: Ex vivo biodistribution in healthy balb/c mice. As to conditions: Balb/c, mouse, in vivo, 60 min.
Source text: as §1

The nature of data set [1]: LogD at pH 7.4 via shake-flask method (octanol/PBS). To be noted: pH 7.4, shake-flask. In kind it is physicochemical. The protocol:
The lipophilicity was determined by shake flask method in an octanol/PBS mixture. Table 1 gives an overview of logD values for ^18F-Alakyne and ^18F-Ala-folate as well as for ^18F-DBCO and ^18F-DBCO-folate. […] The reduced lipophilicity is expected to be an indicator for less non-specific background signals and a higher renal clearance rate.

[2] abbreviates: balb/c nude (Balb/c AnNRj-Foxn1nu), mouse, in vivo, 60 min.

`Nc1nc2ncc(CNc3ccc(C(=O)NC(CCC(=O)NCCOCCOCCOCCn4cc(CNC(C[18F])C(=O)O)nn4)C(=O)O)cc3)nc2c(=O)[nH]1` (stereo not drawn) [^18F-Ala-folate]: the “visualization of KB tumors in maximum intensity projection (MIP) PET images” value in the data set with KB tumor-bearing mice was “displayed the KB-tumor in the MIP”. In the data set with KB-tumor bearing mice (60 min p.i.), the tumor/blood ratio came out at 10.11, the tumor/kidney ratio turned out to be 0.12 and the tumor/muscle ratio is recorded as 7.64. In the data set on KB-tumor bearing mice (setting [2]), the “reduction of activity in the tumor in the blocked group” value is recorded as 85%, the “tumor uptake relative to ^18F-DBCO-folate” value is on record as 3 times, the “uptake Appendix” value turned out to be 0.39 ± 0.22 %ID/g tissue and the “uptake Blood” value turned out to be 0.17 ± 0.05 %ID/g tissue. Moreover, in the data set with KB-tumor bearing mice (setting [2]), the “uptake Heart” value was found to be 0.22 ± 0.09 %ID/g tissue, the “uptake Inguinal lymph nodes” value turned out to be 0.57 ± 0.15 %ID/g tissue, the “uptake Intestines (empty)” value is 3.42 ± 2.18 %ID/g tissue and the “uptake Left kidney” value was found to be 14.49 ± 3.42 %ID/g tissue. In the data set with KB-tumor bearing mice (setting [2]), the “uptake Liver” value was determined as 1.71 ± 1.02 %ID/g tissue, the “uptake Lung” value is recorded as 0.28 ± 0.05 %ID/g tissue, the “uptake Muscle” value came to 0.22 ± 0.02 %ID/g tissue and the “uptake Pancreas” value is given as 0.26 ± 0.11 %ID/g tissue. Further, in the data set on KB-tumor bearing mice (setting [2]), the “uptake Right kidney” value was 14.27 ± 3.35 %ID/g tissue, the “uptake Spleen” value amounted to 0.16 ± 0.04 %ID/g tissue, the “uptake Stomach (empty)” value was found to be 0.95 ± 0.50 %ID/g tissue and the “uptake Tumor” value came out at 1.68 ± 0.13 %ID/g tissue. The tumor/liver ratio with KB-tumor bearing mice (liver including gallbladder, 60 min p.i.) came to 0.98. The non-specific binding result with FR-negative OC316 cells was “lower non-specific binding”. For the same compound, in the data set on healthy balb/c mice, the “uptake Appendix” value is 0.20 ± 0.11 %ID/g tissue, the “uptake Blood” value came out at 0.29 ± 0.29 %ID/g tissue, the “uptake Heart” value stood at 0.32 ± 0.21 %ID/g tissue and the “uptake Inguinal lymph nodes” value was 0.93 ± 0.67 %ID/g tissue. Besides, in the data set with healthy balb/c mice, the “uptake Intestines (empty)” value stood at 1.67 ± 1.12 %ID/g tissue, the “uptake Left kidney” value came to 19.90 ± 8.63 %ID/g tissue, the “uptake Liver” value is 1.51 ± 1.26 %ID/g tissue and the “uptake Lung” value stood at 0.36 ± 0.16 %ID/g tissue. In addition, in the data set on healthy balb/c mice, the “uptake Muscle” value was 0.26 ± 0.13 %ID/g tissue, the “uptake Pancreas” value worked out at 0.33 ± 0.20 %ID/g tissue, the “uptake Right kidney” value was 20.55 ± 9.71 %ID/g tissue and the “uptake Spleen” value is 0.15 ± 0.09 %ID/g tissue. Moreover, the “uptake Stomach (empty)” value in the data set on healthy balb/c mice amounted to 0.71 ± 0.24 %ID/g tissue.
As for `C#CCNC(C[18F])C(=O)O` (stereo not drawn) [^18F-Alakyne], the “logD7.4 Value” in data set [1] is on record as −1.18 ± 0.03.
